Results taken from ChEMBL document CHEMBL4673372, “1,2,3-triazole-thiazole hybrids: Synthesis, in vitro antimicrobial activity and antibiofilm studies” (Bioorg Med Chem Lett, 2021).
≈ marks a conversion by molar mass, not a printed value.

test system: not listed separately; assay: Selectivity index, ratio of CC50 for human THP-1 cells to MIC for Staphylococcus aureus MTCC 96; format: toxicity; details: not given; call rule not given here

Which selectivity ratio does the source give for COc1ccc(-n2cc(COc3ccc(/C=N/Nc4nc(-c5cc6cc(Br)cc(OC)c6oc5=O)cs4)cc3)nn2)cc1 here?
Its selectivity ratio is 5.14.

test system: not listed separately; assay: Cytotoxicity against human THP-1 cells; format: cell-based; details: not given

Which CC50 does the source give for COc1ccc(-n2cc(COc3ccc(/C=N/Nc4nc(-c5cc6cc(Br)cc(OC)c6oc5=O)cs4)cc3)nn2)cc1 here?
Its CC50 is 30.3 µM.

test system: THP-1; assay: Cytotoxicity against human THP-1 cells assessed as cell damage at 200 uM by LDH assay; format: cell-based; details: thp-1, 200 µM

For COc1ccc(-n2cc(COc3ccc(/C=N/Nc4nc(-c5cc6cc(Br)cc(OC)c6oc5=O)cs4)cc3)nn2)cc1, which Activity is on record?
Its Activity is “Toxic”.

test system: THP-1; assay: Cytotoxicity against human THP-1 cells assessed as reduction in cell viability at 200 uM by MTT assay; format: cell-based; details: thp-1, 200 µM

With COc1ccc(-n2cc(COc3ccc(/C=N/Nc4nc(-c5cc6cc(Br)cc(OC)c6oc5=O)cs4)cc3)nn2)cc1 as the compound, how does the Activity read?
Its Activity is “Toxic”.

test system: Candida albicans; assay: Inhibition of biofilm formation in Candida albicans MTCC 3017 incubated for 24 hrs by crystal violet staining based microtiter plate method; format: functional, organism-based; details: Candida albicans, MTCC 3017, 24 h; read-out: IC50

Which IC50 does the source give for COc1ccc(-n2cc(COc3ccc(/C=N/Nc4nc(-c5cc6cc(Br)cc(OC)c6oc5=O)cs4)cc3)nn2)cc1 here?
Its IC50 is 40.6 µM.

test system: Pseudomonas aeruginosa; assay: Inhibition of biofilm formation in Pseudomonas aeruginosa MTCC 2453 incubated for 24 hrs by crystal violet staining based microtiter plate method; format: functional, organism-based; details: Pseudomonas aeruginosa, MTCC 2453, 24 h; read-out: IC50

With COc1ccc(-n2cc(COc3ccc(/C=N/Nc4nc(-c5cc6cc(Br)cc(OC)c6oc5=O)cs4)cc3)nn2)cc1 as the compound, how does the IC50 read?
Its IC50 is 24.7 µM.

test system: Escherichia coli; assay: Inhibition of biofilm formation in Escherichia coli MTCC 739 incubated for 24 hrs by crystal violet staining based microtiter plate method; format: functional, organism-based; details: Escherichia coli, MTCC 739, 24 h; read-out: IC50

Which IC50 does the source give for COc1ccc(-n2cc(COc3ccc(/C=N/Nc4nc(-c5cc6cc(Br)cc(OC)c6oc5=O)cs4)cc3)nn2)cc1 here?
Its IC50 is 21.9 µM.

test system: Raoultella planticola; assay: Inhibition of biofilm formation in Klebsiella planticola MTCC 530 incubated for 24 hrs by crystal violet staining based microtiter plate method; format: functional, organism-based; details: Klebsiella planticola, MTCC 530, 24 h; read-out: IC50

For COc1ccc(-n2cc(COc3ccc(/C=N/Nc4nc(-c5cc6cc(Br)cc(OC)c6oc5=O)cs4)cc3)nn2)cc1, which IC50 is on record?
Its IC50 is 22.2 µM.

test system: Micrococcus luteus; assay: Inhibition of biofilm formation in Micrococcus luteus MTCC 2470 incubated for 24 hrs by crystal violet staining based microtiter plate method; format: functional, organism-based; details: Micrococcus luteus, MTCC 2470, 24 h; read-out: IC50

Which IC50 does the source give for COc1ccc(-n2cc(COc3ccc(/C=N/Nc4nc(-c5cc6cc(Br)cc(OC)c6oc5=O)cs4)cc3)nn2)cc1 here?
The IC50 was 47.8 µM.

test system: Bacillus subtilis; assay: Inhibition of biofilm formation in Bacillus subtilis MTCC 121 incubated for 24 hrs by crystal violet staining based microtiter plate method; format: functional, organism-based; details: Bacillus subtilis, MTCC 121, 24 h; read-out: IC50

With COc1ccc(-n2cc(COc3ccc(/C=N/Nc4nc(-c5cc6cc(Br)cc(OC)c6oc5=O)cs4)cc3)nn2)cc1 as the compound, how does the IC50 read?
The IC50 was 15.9 µM.

test system: Staphylococcus aureus; assay: Inhibition of biofilm formation in Staphylococcus aureus MLS16 MTCC 2940 incubated for 24 hrs by crystal violet staining based microtiter plate method; format: functional, organism-based; details: not given

With COc1ccc(-n2cc(COc3ccc(/C=N/Nc4nc(-c5cc6cc(Br)cc(OC)c6oc5=O)cs4)cc3)nn2)cc1 as the compound, how does the IC50 read?
The IC50 was “Not Active”.

test system: Staphylococcus aureus; assay: Inhibition of biofilm formation in Staphylococcus aureus […] incubated for 24 hrs by crystal violet staining based microtiter plate method; format: functional, organism-based; details: Staphylococcus aureus, MTCC 92, 24 h; read-out: IC50

With COc1ccc(-n2cc(COc3ccc(/C=N/Nc4nc(-c5cc6cc(Br)cc(OC)c6oc5=O)cs4)cc3)nn2)cc1 as the compound, how does the IC50 read?
The IC50 was 12 µM.

test system: Pichia sporocuriosa; assay: Antifungal activity against Issatchenkia hanoiensis MTCC 4755; format: functional; details: not given

With COc1ccc(-n2cc(COc3ccc(/C=N/Nc4nc(-c5cc6cc(Br)cc(OC)c6oc5=O)cs4)cc3)nn2)cc1 as the compound, how does the MIC read?
Its MIC is > 190 µM.

test system: Pichia kudriavzevii; assay: Antifungal activity against Candida krusei MTCC 3020; format: functional; details: not given

Which MIC does the source give for COc1ccc(-n2cc(COc3ccc(/C=N/Nc4nc(-c5cc6cc(Br)cc(OC)c6oc5=O)cs4)cc3)nn2)cc1 here?
Its MIC is > 190 µM.

test system: Nakaseomyces glabratus; assay: Antifungal activity against Candida glabrata MTCC 3019; format: functional; details: not given

Which MIC does the source give for COc1ccc(-n2cc(COc3ccc(/C=N/Nc4nc(-c5cc6cc(Br)cc(OC)c6oc5=O)cs4)cc3)nn2)cc1 here?
The MIC was 5.9 µM (≈ 3.89 µg/mL).

test system: [Candida] aaseri; assay: Antifungal activity against Candida aaseri MTCC 1962; format: functional; details: Yamadazyma aaseri

With COc1ccc(-n2cc(COc3ccc(/C=N/Nc4nc(-c5cc6cc(Br)cc(OC)c6oc5=O)cs4)cc3)nn2)cc1 as the compound, how does the MIC read?
Its MIC is 5.9 µM (≈ 3.89 µg/mL).

test system: Candida parapsilosis; assay: Antifungal activity against Candida parapsilosis MTCC 1745; format: functional; details: Lodderomyces parapsilosis

With COc1ccc(-n2cc(COc3ccc(/C=N/Nc4nc(-c5cc6cc(Br)cc(OC)c6oc5=O)cs4)cc3)nn2)cc1 as the compound, how does the MIC read?
Its MIC is > 190 µM.

test system: Candida albicans; assay: Antifungal activity against Candida albicans MTCC 4748; format: functional; details: not given

For COc1ccc(-n2cc(COc3ccc(/C=N/Nc4nc(-c5cc6cc(Br)cc(OC)c6oc5=O)cs4)cc3)nn2)cc1, which MIC is on record?
Its MIC is > 190 µM.

test system: Candida albicans; assay: Antifungal activity against Candida albicans MTCC 3958; format: functional; details: not given

For COc1ccc(-n2cc(COc3ccc(/C=N/Nc4nc(-c5cc6cc(Br)cc(OC)c6oc5=O)cs4)cc3)nn2)cc1, which MIC is on record?
The MIC was > 190 µM.

test system: Candida albicans; assay: Antifungal activity against Candida albicans MTCC 3018; format: functional; details: not given

Which MIC does the source give for COc1ccc(-n2cc(COc3ccc(/C=N/Nc4nc(-c5cc6cc(Br)cc(OC)c6oc5=O)cs4)cc3)nn2)cc1 here?
The MIC was 5.9 µM (≈ 3.89 µg/mL).

test system: Candida albicans; assay: Antifungal activity against Candida albicans MTCC 1637; format: functional; details: not given

With COc1ccc(-n2cc(COc3ccc(/C=N/Nc4nc(-c5cc6cc(Br)cc(OC)c6oc5=O)cs4)cc3)nn2)cc1 as the compound, how does the MIC read?
The MIC was 5.9 µM (≈ 3.89 µg/mL).
